In patent US20080234304A1, “N3-Pyridyl-Thiamine And Its Use In Cancer Treatments” (AVEO PHARMACEUTICALS, INC., priority 2004, published 2008):
Entries after “also recorded” stand apart in the source; their conditions may differ. Where two headings read alike, the source gives them in different places.

What was measured:
[1] = overall animal weight and major organ weight of treated mice; type: in vivo, mouse; conditions: 200 mg/kg/day
Procedure: A mouse xenograft model was used to evaluate the efficacy of N3PT in modulating tumor growth. Cancer cells (HCT-116 Luc+, comprising a stably transfected luciferase gene) were injected subcutaneously (10^6 cells) into Balb C nude mice on both flanks on day 7 prior to treatment. Tumors were allowed to grow to palpable size from test day 0, defined as the start of a treatment regime. N3PT was injected ip (intraperitoneally) at a given regimen (e.g., 200 mg/kg/day) and tumor size monitored by luminance intensity from day 0-7, caliper measurement after day 7, and by weight at the end of study, after the animals were sacrificed. See, e.g., Wang and El-Deiry, Cancer Biol Ther. 2(2):196-202 (2003); Ray et al., Cancer Res. 63(6):1160-5 (2003); see also, e.g., U.S. Pat. Nos. 6,416,960; 6,596,257; and 6,217,847.

HCT116 = assay: inhibition of proliferation of HCT116 cells; type: cell-based, human; conditions: HCT116 colon carcinoma
Procedure: The ability of N3PT to inhibit proliferation of these cell lines was then tested. LAMA84 was the most sensitive to N3PT, displaying an IC50 of 0.3 μM. The other cell lines, HCT116 and K562, were less sensitive, displaying an IC50 of approximately 2 μM in both cases. LAMA84 also had the highest TK activity (per cell) among these three cancer lines.

transketolase = molecular target: T1, transketolase (Homo sapiens, UniProt P29401); assay: transketolase activity in cell based assay (lysates of N3PT-treated cells, GAPDH-coupled NADH readout)
T1 construct: Cells were lysed by vortexing and cell extracts assayed for transketolase activity; endogenous in cells; other cell lines not specified
T1 sequence (P29401 1-623): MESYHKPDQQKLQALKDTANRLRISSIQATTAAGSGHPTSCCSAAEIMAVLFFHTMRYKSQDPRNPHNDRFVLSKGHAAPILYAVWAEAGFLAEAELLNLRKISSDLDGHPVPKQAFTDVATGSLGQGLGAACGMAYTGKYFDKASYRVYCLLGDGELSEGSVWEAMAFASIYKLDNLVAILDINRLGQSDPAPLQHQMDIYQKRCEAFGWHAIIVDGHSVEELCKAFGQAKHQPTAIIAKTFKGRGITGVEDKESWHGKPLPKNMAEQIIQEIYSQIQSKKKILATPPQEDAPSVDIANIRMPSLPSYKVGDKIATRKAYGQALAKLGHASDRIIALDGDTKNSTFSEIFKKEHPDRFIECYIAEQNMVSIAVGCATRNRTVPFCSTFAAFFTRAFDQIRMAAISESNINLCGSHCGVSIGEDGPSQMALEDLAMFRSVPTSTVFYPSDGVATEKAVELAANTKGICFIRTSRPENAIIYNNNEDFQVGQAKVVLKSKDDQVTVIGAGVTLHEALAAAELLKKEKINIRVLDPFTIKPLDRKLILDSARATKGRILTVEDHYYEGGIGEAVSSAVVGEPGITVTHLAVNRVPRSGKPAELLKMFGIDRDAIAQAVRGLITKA
Procedure: Human carcinoma cell lines, such as, but not restricted to, HCT116, HT1080, DLD-1, Rv22, MIA PA CA-2, HCT-15, and murine cell lines, CT26, 4T1 (all cell lines described are available from the ATCC), were cultured in standard conditions (37 C, 5% CO2) in DMEM media (10% FBS, 1% Penicillin-Streptomycin) and harvested at 60-80% confluency by trypsinization. Approximately 2 million cells were collected in an Eppendorf tube and washed 2 times (2×) with PBS by centrifugation and stored at −20° C. as cell pellets. Ice-cold lysis buffer (1 ml) (20 mM HEPES, pH 7.5, 1 mM EDTA, 0.2 g/l Triton X-100 and 0.2 g/L sodium deoxycholate, supplemented with 1 mM DTT and 1 mM PMSF just before use) was added to each cell pellet. Cells were lysed by vortexing and cell extracts assayed for transketolase activity at pH 7.5, by coupling a subsequent glyceraldehyde-3-phosphate dehydrogenase (GAPDH) reaction and measuring conversion of NAD to NADH (FIG. 1).
The assay was carried out as follows. […] of […] assay buffer containing final concentrations of 50 mM HEPES, 40 mM KCl, 2.5 mM MgCl2, 5 mM NaArsenate, 1 mM NAD, 2 unit/ml glyceraldehydes-3-phosphate dehydrogenase (GAPDH) was added to 80 μl of lysate. Reaction kinetics were monitored on a fluorescent plate reader to allow any possible background activity via GAPDH to burn out. Then 5 ul of substrate mix containing final concentrations of 0.5 mM ribose-5-phosphate and 0.5 mM xylulose-5-phosphate was added to initiate the reaction. The reaction kinetics were monitored using a fluorescent plate reader, and the slope of the initial linear range was recorded as the velocity of the reaction (FU/min).
TK, kGDH and PDH enzymes all utilize thiamine pyrophosphate (TPP) as a co-factor for their catalysis. Conventional cell culture media (e.g., DMEM, RPMI) have high levels of thiamine (12 μM and 3 μM, respectively). […]
Log-phase growing cells were trypsinized and resuspended in TDM. […] TK activities could be measured from ≧5000 cells in most cell lines tested. […]
Enzymatic inhibition was expressed as percent of control cells that were not treated with compounds. […]

[2] = molecular target: T2, glucose-6-phosphate dehydrogenase (G6PDH) (Mus musculus, UniProt Q00612); assay: G6PDH activity in blood and tissues of N3PT-treated mice; type: in vivo
T2 construct: (G6PDH) in blood, spleen and brain after a single dose of N3PT in mice; from tissue; host or cells: blood, spleen and brain of Balb C nude mice
T2 sequence (Q00612 whole entry): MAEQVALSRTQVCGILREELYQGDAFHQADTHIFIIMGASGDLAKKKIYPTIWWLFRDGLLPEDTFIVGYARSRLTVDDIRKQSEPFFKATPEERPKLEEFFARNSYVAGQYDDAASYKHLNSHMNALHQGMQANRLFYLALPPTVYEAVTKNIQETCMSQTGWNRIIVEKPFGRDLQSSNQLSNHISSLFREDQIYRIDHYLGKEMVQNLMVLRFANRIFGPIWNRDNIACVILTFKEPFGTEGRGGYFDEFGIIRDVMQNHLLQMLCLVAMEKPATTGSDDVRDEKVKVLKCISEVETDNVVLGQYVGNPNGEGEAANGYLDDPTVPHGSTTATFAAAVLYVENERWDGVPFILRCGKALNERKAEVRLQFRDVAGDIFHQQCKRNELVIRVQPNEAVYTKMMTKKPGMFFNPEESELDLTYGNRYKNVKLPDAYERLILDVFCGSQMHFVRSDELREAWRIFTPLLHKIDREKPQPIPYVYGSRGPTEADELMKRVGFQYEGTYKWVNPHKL

With Cc1ccc(C[n+]2csc(CCO)c2C)c(N)n1 [N3PT, 3-[(2-amino-6-methyl-3-pyridinyl)methyl]-5-(2-hydroxyethyl)-4-methyl thiazolium] the overall animal weight ([1]; day 0, 6 and 11) was “no effect on overall animal weight; also recorded: did not affect”, the “major organ weight (brain, heart, kidney, liver, lung, spleen)” value ([1]; day 11 post treatment) was “no effect on major organ weight; also recorded: did not affect” and the IC50 (HCT116) was about 2000 nM. The “duration of inhibition of cellular transketolase activity” value (transketolase; cells treated two days, washed out, TK monitored days 3-7) was “long lasting; also recorded: persists for several days”, the IC50 (transketolase; extracts from cells incubated with increasing concentrations of N3PT, read-out: IC50 transketolase (selectivity comparison, FIG. 9)) was 7 nM and the IC50 (transketolase; production of glyceraldehyde-3-phosphate by transketolase, read-out: IC50 transketolase in cell assays) was 27 nM. For the same compound, the “G6PDH activity after repeated treatment” value ([2]; 200 mg/kg/day, % of vehicle average) was “no effect on G6PDH activity” and the “G6PDH activity after single dose” value ([2]; single dose 100 mg/kg i.p., blood, spleen, brain, 0-120 hr, 100 mg/kg) was “no effect on G6PDH in vivo; also recorded: little or no effect”.
